Laboratory results from the supplement of paper PMC10307832.

What was measured:
Assay in all cases: relative viability (nuclei count vs DMSO), 5 days (fraction); higher = more cells survive
BGJ398 + Palbociclib = compound: CCN1CCN(c2ccc(Nc3cc(N(C)C(=O)Nc4c(Cl)c(OC)cc(OC)c4Cl)ncn3)cc2)CC1 [BGJ398] + CC(=O)c1c(C)c2cnc(Nc3ccc(N4CCNCC4)cn3)nc2n(C2CCCC2)c1=O [Palbociclib] (partner 0.5 µM)
Method in brief: (§1)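 One day after seeding in 1536-well plates, lung cancer cell lines were dosed by pin tool. Dosing was either single-drug or a fixed anchor-drug dose plus five library-drug doses (not always all listed) in √10 steps. After 5 days, nuclei were stained in one fix-and-stain step and counted on 4× images, and relative viability is the nuclei count of treated wells over that of vehicle wells, given as the median of duplicate plates.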

BGJ398 + Vorinostat = compound: CCN1CCN(c2ccc(Nc3cc(N(C)C(=O)Nc4c(Cl)c(OC)cc(OC)c4Cl)ncn3)cc2)CC1 [BGJ398] + O=C(CCCCCCC(=O)Nc1ccccc1)NO [Vorinostat] (partner 1 µM)
Method in brief: as §1

[1] = compound: C1=CC2=NC=CN=C2C=C1/C=C/3\C(=O)NC(=O)S3 + C[C@@H](Oc1cc(-c2cnn(C3CCNCC3)c2)cnc1N)c1c(Cl)ccc(F)c1Cl [Crizotinib] (partner 1 µM)
Method in brief: as §1

BGJ398 + Trametinib = compound: CCN1CCN(c2ccc(Nc3cc(N(C)C(=O)Nc4c(Cl)c(OC)cc(OC)c4Cl)ncn3)cc2)CC1 [BGJ398] + CC(=O)Nc1cccc(-n2c(=O)n(C3CC3)c(=O)c3c(Nc4ccc(I)cc4F)n(C)c(=O)c(C)c32)c1 [Trametinib] (partner 0.02 µM)
Method in brief: as §1

Cell Line: UMC-11
- relative viability (BGJ398 + Palbociclib; first compound 0.01 µM): 0.327
- relative viability (BGJ398 + Palbociclib; first compound 0.03162 µM): 0.276
- relative viability (BGJ398 + Palbociclib; first compound 0.1 µM): 0.36
- relative viability (BGJ398 + Palbociclib; first compound 0.3162 µM): 0.374
- relative viability (BGJ398 + Palbociclib; first compound 1 µM): 0.351
- relative viability (BGJ398 + Vorinostat; first compound 0.01 µM): 0.363
- relative viability (BGJ398 + Vorinostat; first compound 0.03162 µM): 0.407
- relative viability (BGJ398 + Vorinostat; first compound 0.1 µM): 0.376
- relative viability (BGJ398 + Vorinostat; first compound 0.3162 µM): 0.376
- relative viability (BGJ398 + Vorinostat; first compound 1 µM): 0.382
- relative viability ([1]; first compound 0.02 µM): 0.627
- relative viability ([1]; first compound 0.06325 µM): 0.572
- relative viability ([1]; first compound 0.2 µM): 0.557
- relative viability ([1]; first compound 0.6325 µM): 0.603
- relative viability ([1]; first compound 2 µM): 0.722
- relative viability (BGJ398 + Trametinib; first compound 0.01 µM): 0.671
- relative viability (BGJ398 + Trametinib; first compound 0.03162 µM): 0.749
- relative viability (BGJ398 + Trametinib; first compound 0.1 µM): 0.808
- relative viability (BGJ398 + Trametinib; first compound 0.3162 µM): 0.622
- relative viability (BGJ398 + Trametinib; first compound 1 µM): 0.55
